Reference: the NIST ThermoML archive (doi:10.1021/je900974u)

Assays:
[1] = molar heat capacity at constant pressure; conditions: 101.33 kPa, Liquid, Vacuum adiabatic calorimetry
[2] = for Triple point temperature: Crystal; for mass density: 101.33 kPa, Liquid, Pycnometric method
[3] = Molar enthalpy of transition or fusion; conditions: Crystal; Adiabatic calorimetry

CCOS(=O)(=O)[O-].CCn1cc[n+](C)c1 [1-ethyl-3-methylimidazolium ethyl sulfate]
[1]
Conditions | molar heat capacity at constant pressure [J/K/mol]
191.13 K | 354.4
193.05 K | 354.6
194.98 K | 354.9
196.91 K | 355.1
198.84 K | 355.3
200.77 K | 355.7
202.71 K | 355.9
204.64 K | 356.3
206.57 K | 356.6
208.5 K | 356.9
210.44 K | 357.2
212.37 K | 357.5
214.3 K | 357.9
216.24 K | 358.3
218.18 K | 358.7
220.11 K | 359.2
222.05 K | 359.6
223.98 K | 360.1
225.92 K | 360.4
227.86 K | 360.9
229.8 K | 361.4
231.74 K | 362.1
233.68 K | 362.5
235.62 K | 363
237.56 K | 363.5
239.5 K | 364
241.43 K | 364.6
243.37 K | 365.1
245.32 K | 365.6
247.26 K | 366.2
249.2 K | 366.8
251.14 K | 367.4
253.08 K | 367.9
255.02 K | 368.5
256.96 K | 369.1
258.9 K | 369.9
260.85 K | 370.3
262.79 K | 371
264.73 K | 371.7
266.67 K | 372.1
268.62 K | 372.7
270.55 K | 373.4
272.5 K | 374.1
274.44 K | 374.8
276.38 K | 375.1
278.32 K | 375.6
280.25 K | 376.5
282.2 K | 377
284.14 K | 377.6
286.08 K | 378.2
288.03 K | 378.7
289.97 K | 379.4
291.91 K | 380.2
293.85 K | 381
295.79 K | 381.9
297.74 K | 382.6
299.68 K | 383.5
301.62 K | 384.2
303.56 K | 385
305.51 K | 385.9
307.45 K | 386.7
309.39 K | 387.5
311.33 K | 388.6
313.28 K | 389.5
315.22 K | 390.4
317.16 K | 391.4
319.11 K | 392.2
321.05 K | 393.2
322.99 K | 394
324.93 K | 395
326.88 K | 395.9
328.82 K | 396.9
330.77 K | 397.7
332.71 K | 398.5
334.66 K | 399.7
336.6 K | 400.5
338.54 K | 401.4
340.49 K | 402.7
342.43 K | 403.5
344.38 K | 404.4
346.32 K | 405.7
348.27 K | 406.7
350.21 K | 407.8
352.15 K | 408.8
354.1 K | 409.7
356.04 K | 410.8
357.98 K | 411.9
359.92 K | 412.8
361.86 K | 413.9
363.8 K | 414.9
365.75 K | 415.9
367.69 K | 416.8

CCCCCCCC[n+]1ccn(C)c1.F[B-](F)(F)F [1-methyl-3-octylimidazolium tetrafluoroborate]
Conditions | Molar enthalpy of transition or fusion [kcal/mol] | Triple point temperature [K]
[2] | – | 245.75
[3] | 3.513 | –

[1]
Conditions | molar heat capacity at constant pressure [J/K/mol]
195.88 K | 466.3
197.4 K | 465.8
198.93 K | 465.5
200.46 K | 464.9
202.1 K | 464.6
203.86 K | 464.1
205.61 K | 463.8
207.37 K | 463.5
209.14 K | 463.2
210.91 K | 463.2
212.69 K | 463.2
214.47 K | 463.2
216.25 K | 463.5
218.04 K | 463.5
218.59 K | 463.5
219.83 K | 463.8
220.61 K | 463.8
221.62 K | 464.1
222.57 K | 464.1
223.42 K | 464.4
224.52 K | 464.6
225.22 K | 464.6
226.48 K | 464.9
227.02 K | 464.9
228.43 K | 465.5
228.83 K | 465.5
230.39 K | 466.1
230.63 K | 466.3
232.35 K | 466.3
234.3 K | 466.6
236.26 K | 467.5
238.22 K | 468
240.18 K | 468.6
242.14 K | 469.4
244.1 K | 470.3
246.06 K | 470.8
247.53 K | 471.7
248.02 K | 471.7
249.36 K | 472.5
249.99 K | 472.5
251.18 K | 473.1
251.95 K | 473.4
253 K | 473.7
253.91 K | 474.2
254.83 K | 474.5
255.87 K | 475.1
256.65 K | 475.4
257.83 K | 476.2
258.48 K | 476.2
260.3 K | 477.3
262.13 K | 478.2
263.95 K | 479
265.78 K | 480.1
267.6 K | 481
269.43 K | 482.1
271.26 K | 483
273.08 K | 483.8
274.91 K | 484.6
276.74 K | 486.1
278.57 K | 486.9
280.39 K | 488
282.22 K | 488.9
284.05 K | 490
285.87 K | 490.8
287.7 K | 492
289.53 K | 493.1
291.35 K | 494.2
293.18 K | 495.1
295 K | 496.2
296.83 K | 497.3
298.65 K | 498.2
300.48 K | 499.3
302.36 K | 500.4
304.29 K | 501.6
306.22 K | 502.7
308.16 K | 503.8
310.09 K | 504.9
312.02 K | 505.8
313.95 K | 507.2
315.89 K | 508.3
317.82 K | 509.4
319.75 K | 510.6
321.68 K | 512
323.62 K | 513.1
325.55 K | 514.2
327.48 K | 515.1
329.41 K | 516.5
331.34 K | 517.9
333.27 K | 519.3
335.19 K | 520.4
337.12 K | 521.8
339.05 K | 523
340.97 K | 524.4
342.9 K | 525.5
344.82 K | 526.6
346.75 K | 528
348.68 K | 529.5
350.6 K | 530.9
352.53 K | 532.3
354.45 K | 533.4
356.38 K | 534.8
358.3 K | 535.9
360.22 K | 537.3
362.14 K | 539
364.06 K | 539.9
365.98 K | 541.3
367.89 K | 542.7

CCC[n+]1ccn(C)c1.[Br-] [1-methyl-3-propylimidazolium bromide]
Conditions | mass density [kg/m3] | molar heat capacity at constant pressure [J/K/mol]
[1], 222.57 K | – | 260
[1], 224.61 K | – | 260.5
[1], 226.66 K | – | 260.8
[1], 228.71 K | – | 261.3
[1], 230.76 K | – | 261.7
[1], 232.81 K | – | 262.1
[1], 234.85 K | – | 262.7
[1], 236.9 K | – | 263.1
[1], 238.95 K | – | 263.5
[1], 241 K | – | 264
[1], 243.05 K | – | 264.4
[1], 245.1 K | – | 264.9
[1], 247.15 K | – | 265.4
[1], 249.2 K | – | 266
[1], 251.25 K | – | 266.5
[1], 253.31 K | – | 267.1
[1], 255.36 K | – | 267.6
[1], 257.41 K | – | 268.2
[1], 259.46 K | – | 268.8
[1], 261.51 K | – | 269.5
[1], 263.56 K | – | 270
[1], 265.62 K | – | 270.6
[1], 267.67 K | – | 271.2
[1], 269.72 K | – | 271.8
[1], 271.77 K | – | 272.5
[1], 273.82 K | – | 273.2
[1], 275.87 K | – | 273.8
[1], 277.92 K | – | 274.5
[1], 279.98 K | – | 275.1
[1], 282.03 K | – | 275.8
[1], 284.08 K | – | 276.4
[1], 286.13 K | – | 277
[1], 288.18 K | – | 277.8
[1], 290.23 K | – | 278.4
[1], 292.28 K | – | 279.1
[1], 294.33 K | – | 279.7
[1], 296.39 K | – | 280.4
[1], 298.44 K | – | 281
[1], 300.49 K | – | 281.7
[1], 302.54 K | – | 282.4
[1], 304.59 K | – | 283
[1], 306.64 K | – | 283.7
[1], 308.7 K | – | 284.4
[1], 310.75 K | – | 285
[1], 312.8 K | – | 285.7
[1], 314.85 K | – | 286.4
[1], 316.91 K | – | 287.1
[1], 318.96 K | – | 287.7
[1], 321.01 K | – | 288.5
[1], 323.07 K | – | 289.2
[1], 325.12 K | – | 289.8
[1], 327.18 K | – | 290.6
[1], 329.23 K | – | 291.4
[1], 331.28 K | – | 292.1
[1], 333.34 K | – | 292.9
[1], 335.39 K | – | 293.6
[1], 337.45 K | – | 294.3
[1], 339.5 K | – | 295.1
[1], 341.56 K | – | 295.9
[1], 343.61 K | – | 296.7
[1], 345.67 K | – | 297.3
[1], 347.73 K | – | 298.2
[1], 349.78 K | – | 299.2
[1], 351.84 K | – | 299.9
[1], 353.9 K | – | 300.7
[1], 355.95 K | – | 301.4
[1], 358.01 K | – | 302.2
[1], 360.06 K | – | 303.1
[1], 362.12 K | – | 303.8
[1], 364.17 K | – | 304.6
[1], 366.23 K | – | 305.4
[1], 368.28 K | – | 306.3
[2], 302.71 K | 1355.9 | –
[2], 307.7 K | 1352.4 | –
[2], 312.7 K | 1348.9 | –
[2], 317.71 K | 1345.4 | –
[2], 322.7 K | 1341.9 | –
[2], 327.7 K | 1338.5 | –
[2], 332.7 K | 1335 | –
[2], 337.69 K | 1331.6 | –
[2], 342.68 K | 1328.2 | –
[2], 347.68 K | 1324.9 | –
[2], 352.67 K | 1321.6 | –
[2], 357.67 K | 1318.3 | –

Conditions | Molar enthalpy of transition or fusion [kcal/mol] | Triple point temperature [K]
[2] | – | 309.56
[3] | 4.589 | –
